Laboratory results as given in patent publication US7718679B2, “Heteroaryl carboxamides” (Hoffman-La Roche Inc., priority 2006, dated 2010).

Molecular target: T1, human factor Xa (Homo sapiens, UniProt P00742)
T1 construct: Factor Xa is a serine endopeptidase composed of two disulfide-linked subunits; purchased Enzyme Research Laboratories
Assay: Factor Xa chromogenic peptide substrate (S-2222) assay
Format: biochemical
Details: apparent Ki by Cheng-Prusoff from IC50; human factor Xa 3 nM, substrate S-2222, pH 7.8, room temperature
Protocol: Factor Xa activity was measured spectrophotometrically in microtiter plates in a final volume of 150 μl using the following conditions: Inhibition of human factor Xa (Enzyme Research Laboratories) was tested at an enzyme concentration of 3 nM using the chromogenic substrate S-2222 (Chromogenix AB, Mölndal, Sweden) at 200 nM. The reaction kinetics of the enzyme and the substrate were linear with both time and the enzyme concentration. The inhibitors were dissolved in DMSO and tested at various concentrations up to 100 μM. The inhibitors were diluted using HNPT buffer consisting of HEPES 100 mMM, NaCl 140 mM, PEG 6000 0.1% and Tween 80 0.02%, pH 7.8. […] The velocity of the reaction was determined by the autoreader from the slope of the linear regression fit to 7 time points (1 minute). The initial velocity for each inhibitor concentration was determined by the slope of at least 4 time points in the linear phase by a linear regression fit (mOD/min^2). Apparent dissociation constants Ki were calculated according to Cheng and Prusoff [Cheng, Y. C.; Prusoff, W. H. Relationship between the inhibition constant (Ki) and the concentration of the inhibitor that causes 50 percent inhibition (IC50) of an enzyme reaction. Biochem. Pharmacol. 1973, 22, 3099-3108.] based on the IC50 and the respective Km, determined previously (Ki=IC50/(1+S/Km)). […]

T1 sequence (P00742 235-488 limits assumed): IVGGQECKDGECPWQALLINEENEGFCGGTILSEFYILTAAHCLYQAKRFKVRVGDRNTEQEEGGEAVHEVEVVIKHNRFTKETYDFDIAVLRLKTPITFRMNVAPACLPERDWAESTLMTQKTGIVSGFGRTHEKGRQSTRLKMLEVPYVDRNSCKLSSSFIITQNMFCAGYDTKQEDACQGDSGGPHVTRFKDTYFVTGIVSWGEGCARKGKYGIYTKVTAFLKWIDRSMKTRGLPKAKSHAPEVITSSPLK
T1 sequence (P00742 41-179 partner limits assumed): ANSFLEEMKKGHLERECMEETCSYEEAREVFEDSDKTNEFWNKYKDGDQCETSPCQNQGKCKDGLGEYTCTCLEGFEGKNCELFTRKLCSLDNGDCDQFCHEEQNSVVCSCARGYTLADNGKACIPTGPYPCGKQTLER

SMILES | Ki [µM]
O=C(Nc1ccc(N2CCOCC2=O)cc1)c1nc(CNC(=O)c2ccc(Cl)s2)no1 [Example 5, 3-{[(5-chloro-thiophene-2-carbonyl)-amino]-methyl}-[1,2,4]oxadiazole-5-carboxylic acid [4-(3-oxo-morpholin-4-yl)-phenyl]-amide] | 0.016
O=C(Nc1ccc(-n2ccncc2=O)cc1F)c1nc(CNC(=O)c2ccc(Cl)s2)no1 [Example 3, 3-{[(5-chloro-thiophene-2-carbonyl)-amino]-methyl}-[1,2,4]oxadiazole-5-carboxylic acid [2-fluoro-4-(2-oxo-2H-pyrazine-1-yl)-phenyl]-amide] | 0.007
